Reference: article PMC8794255, “Small molecule inhibitor of Igf2bp1 represses Kras and a pro-oncogenic phenotype in cancer cells” (RNA Biology, 2021)

Experiments:
[1] = tested on: HEK293 cells; test: Wound healing (cell migration) assay, HEK293; assay type: cell-based, human
Procedure: Cells were seeded in 96 IncuCyte® ImageLock plates (20X10^3 cells per well) for 24 hours, to a near confluency of 95%, before the addition of increasing concentrations of compound. After a further 24 hours, wells were scratched using the IncuCyte® 96-well WoundMaker Tool, and the cells cultured for an additional 48 hours using the IncuCyte® S3 Live-Cell Analysis System (Essen BioScience). The plate was imaged at increments of 120 minutes for a period of 48 hours, and then analysed for relative wound healing.

[2] = biological target: T1, La (Homo sapiens, UniProt P05455); test: FP counterscreen: La binding to Bcl2 RNA
T1 sequence (P05455 1-408): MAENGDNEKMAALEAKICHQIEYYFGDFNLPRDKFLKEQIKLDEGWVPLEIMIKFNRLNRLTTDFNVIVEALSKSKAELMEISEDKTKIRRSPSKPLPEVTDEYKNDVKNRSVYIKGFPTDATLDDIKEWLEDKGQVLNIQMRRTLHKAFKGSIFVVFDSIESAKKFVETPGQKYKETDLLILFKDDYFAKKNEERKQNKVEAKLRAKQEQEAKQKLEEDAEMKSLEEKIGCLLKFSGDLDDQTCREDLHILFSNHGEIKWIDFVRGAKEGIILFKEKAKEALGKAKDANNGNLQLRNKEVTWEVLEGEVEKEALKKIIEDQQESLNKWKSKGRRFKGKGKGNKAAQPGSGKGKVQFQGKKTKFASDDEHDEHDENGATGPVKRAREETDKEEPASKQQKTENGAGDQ

O=C(c1ccc(Cn2cnnn2)cc1)N1CCCC(Nc2ccc3c(c2)OCO3)C1 (stereo not shown) [compound 7773]
Wound healing ([1]; HEK293, 20 μM): strongly inhibited | Wound healing ([1]; HEK293, lowest concentration 5 μM): discernible inhibition | Effect on control RBP (La) binding to its target (Bcl2 RNA) [2]: almost no effect | IC50 ([2]; control RNA binding protein, read-out: IC50, inhibition of La binding to Bcl2 RNA): > 100 µM
